Results taken from paper PMC11219871, “Epigenetic-based differentiation therapy for Acute Myeloid Leukemia” (Nature Communications, 2024).
Values joined by “and” are separate entries in the source; they are usually repeats but may differ in a detail not shown here. Identical values can stand only once.

Key:
HL-60 = experiment: q-RT-PCR of MYC, CDKN2A, CDKN1A, GATA2, TAL1, CEBPA, SPI1; type: cell-based, human
Protocol: (§1) RNA was extracted with TRIzol Reagent (Invitrogen) according to the manufacturer’s instructions. First, cDNA was synthesized from 1 µg of total RNA using the PrimeScript RT reagent Kit (Perfect Real Time) (Cat No RR037A, TaKaRa) following the manufacturer’s instructions. The quality of cDNA was checked by a multiplex PCR that amplifies PBGD, ABL, BCR and β2-MG genes. […] The following program conditions were used for the q-PCR: 50 °C for 2 min, 95 °C for 60 s following by 45 cycles at 95 °C for 15 s and 60 °C for 60 s; melting program, one cycle at 95 °C for 15 s, 40 °C for 60 s, and 95 °C for 15 s. The relative expression of each gene was quantified by the […] method using the gene GUS as an endogenous control. The sequence of primers used can be found in Supplementary Table 10.

MOLM-13 = experiment: as above; type: cell-based, human
Protocol: as §1

ML-2 = experiment: as above; type: cell-based, human
Protocol: as §1

MV4-11 = experiment: as above; type: cell-based, human
Protocol: as §1

HDAC9 = biological target: T1, HDAC9 (Homo sapiens, UniProt Q9UKV0); experiment: HDAC assay (Eurofins); type: biochemical
T1 construct: purchased Eurofins (contracted assay service)

[1] = tested on: LINE-1 DNA methylation in ML-2; experiment: LINE-1 pyrosequencing; type: cell-based, human
[2] = tested on: LINE-1 DNA methylation in MV4-11; experiment: LINE-1 pyrosequencing; type: cell-based, human
[3] = tested on: LINE-1 DNA methylation in HL-60; experiment: LINE-1 pyrosequencing; type: cell-based, human
[4] = HL-60, replicates 1-3 (Figure 2E)
[5] = HL-60, replicates 1-3 (Figure 2G)
[6] = HL-60 treated daily for 48 h, replicates (Fig 6F)
[7] = MOLM-13, daily treatment for 48 h, replicates 1-3
[8] = ML-2, replicates 1-3 (Figure 2E)
[9] = ML-2, replicates 1-3 (Figure 2G)
[10] = ML-2 treated daily for 48 h, replicates (Fig 6G)
[11] = MV4-11, daily treatment for 48 h, replicates 1-3

T1 sequence (Q9UKV0 whole entry): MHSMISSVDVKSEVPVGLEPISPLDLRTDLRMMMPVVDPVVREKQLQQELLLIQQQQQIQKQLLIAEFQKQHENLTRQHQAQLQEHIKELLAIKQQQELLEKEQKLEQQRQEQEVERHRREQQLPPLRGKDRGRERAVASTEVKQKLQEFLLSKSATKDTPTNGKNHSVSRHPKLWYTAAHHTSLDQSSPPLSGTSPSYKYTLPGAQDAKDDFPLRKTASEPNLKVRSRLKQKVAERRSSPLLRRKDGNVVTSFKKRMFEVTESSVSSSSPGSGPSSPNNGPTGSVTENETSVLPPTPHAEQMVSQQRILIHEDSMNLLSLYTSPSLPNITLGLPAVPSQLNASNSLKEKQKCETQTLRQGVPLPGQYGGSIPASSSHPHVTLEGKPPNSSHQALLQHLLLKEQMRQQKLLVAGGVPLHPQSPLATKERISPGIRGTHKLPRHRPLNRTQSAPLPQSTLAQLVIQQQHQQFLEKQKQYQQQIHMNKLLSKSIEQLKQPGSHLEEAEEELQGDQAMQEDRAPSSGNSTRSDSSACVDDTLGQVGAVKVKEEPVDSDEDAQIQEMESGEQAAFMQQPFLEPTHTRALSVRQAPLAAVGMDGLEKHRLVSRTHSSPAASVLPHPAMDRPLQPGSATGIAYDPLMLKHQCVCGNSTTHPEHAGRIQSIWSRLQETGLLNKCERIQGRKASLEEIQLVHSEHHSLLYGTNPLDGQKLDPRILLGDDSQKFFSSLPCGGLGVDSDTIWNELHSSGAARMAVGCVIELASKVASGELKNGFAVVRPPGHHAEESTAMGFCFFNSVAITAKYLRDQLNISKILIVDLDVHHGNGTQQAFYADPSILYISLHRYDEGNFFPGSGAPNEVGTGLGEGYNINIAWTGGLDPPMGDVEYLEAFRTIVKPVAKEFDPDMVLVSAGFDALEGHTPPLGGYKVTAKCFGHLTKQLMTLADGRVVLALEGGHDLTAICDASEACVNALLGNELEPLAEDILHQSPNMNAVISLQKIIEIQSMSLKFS

COc1cc2nc(-c3cc(C)oc3C)cc(NCC3CCN(c4ncc(C(=O)NO)cn4)CC3)c2cc1OC [CM-1758, 2-[4-[[[2-(2,5-dimethyl-3-furyl)-6,7-dimethoxy-4-quinolyl]amino]methyl] -1-piperidyl]pyrimidine-5-carbohydroxamic acid]
q-PCR of CDKN1A (p21), log10 (2-ΔΔCt) (HL-60; [4]): 1.37 and 1.926 and 1.271
q-PCR of CDKN2A (p16), log10 (2-ΔΔCt) (HL-60; [4]): 0.4933 and 0.5726 and 0.5849
q-PCR of MYC, log10 (2-ΔΔCt) (HL-60; [4]): -0.8313 and -0.6255 and -0.6597
q-PCR of CEBPA, log10 (2-ΔΔCt) (HL-60; [5]): 0.9022 and 0.7826 and 0.9863
q-PCR of GATA2, log10 (2-ΔΔCt) (HL-60; [5]): 0.6526 and 0.7826 and 0.7794
q-PCR of SPI1 (PU.1), log10 (2-ΔΔCt) (HL-60; [5]): 0.3258 and 0.4025 and 0.5101
q-PCR of TAL1 (SCL), log10 (2-ΔΔCt) (HL-60; [5]): 0.0125 and 0.0025 and -0.00845
q-PCR of CEBPA (HL-60; [6]): 1.657 log10 (2-ΔΔCt) and 1.235 log10 (2-ΔΔCt) and 2.096 log10 (2-ΔΔCt)
q-PCR of GATA2 (HL-60; [6]): 0.5314 log10 (2-ΔΔCt) and 0.9421 log10 (2-ΔΔCt) and 0.9001 log10 (2-ΔΔCt)
q-PCR of MYC (HL-60; [6]): -0.7182 log10 (2-ΔΔCt) and -0.6003 log10 (2-ΔΔCt) and -0.8615 log10 (2-ΔΔCt)
q-PCR of SPI1 (HL-60; [6]): 0.5322 log10 (2-ΔΔCt) and 0.69 log10 (2-ΔΔCt) and 0.7959 log10 (2-ΔΔCt)
q-PCR of TAL1 (HL-60; [6]): 1.7134 log10 (2-ΔΔCt) and 1.966 log10 (2-ΔΔCt) and 2.209 log10 (2-ΔΔCt)
q-PCR of CEBPA, log10 (2-ΔΔCt) (MOLM-13; [7]): 2.72 and 2.6188 and 2.826
q-PCR of GATA2, log10 (2-ΔΔCt) (MOLM-13; [7]): 1.088 and 1.1424 and 1.015
q-PCR of MYC, log10 (2-ΔΔCt) (MOLM-13; [7]): -0.6216 and -0.5326 and -0.5822
q-PCR of SPI1, log10 (2-ΔΔCt) (MOLM-13; [7]): 0.02692 and 0.258 and 0.1525
q-PCR of TAL1, log10 (2-ΔΔCt) (MOLM-13; [7]): 1.716 and 1.83 and 1.719
CDKN1A log10 (2-ΔΔCt) (MOLM-13; MOLM-13, q-PCR): 0.1026 and 0.1237 and 0.1127
CDKN2A log10 (2-ΔΔCt) (MOLM-13; MOLM-13, q-PCR): 1.026 and 0.9216 and 0.9282
GATA2 log10 (2-ΔΔCt) (MOLM-13; MOLM-13, q-PCR): 0.5214 and 0.4825 and 0.3541
MYC log10 (2-ΔΔCt) (MOLM-13; MOLM-13, q-PCR): -0.9936 and -0.8825 and -0.8494
SPI1 log10 (2-ΔΔCt) (MOLM-13; MOLM-13, q-PCR): 0.02258 and 0.0358 and 0.04789
TAL1 log10 (2-ΔΔCt) (MOLM-13; MOLM-13, q-PCR): 1.37 and 1.426 and 1.336
q-PCR of CDKN1A (p21), log10 (2-ΔΔCt) (ML-2; [8]): 1.727 and 1.688 and 1.928
q-PCR of CDKN2A (p16), log10 (2-ΔΔCt) (ML-2; [8]): 0.7127 and 0.6825 and 0.5556
q-PCR of MYC, log10 (2-ΔΔCt) (ML-2; [8]): -0.9587 and -1.237 and -1.248
q-PCR of CEBPA, log10 (2-ΔΔCt) (ML-2; [9]): 1.926 and 1.786 and 1.671
q-PCR of GATA2, log10 (2-ΔΔCt) (ML-2; [9]): 2.013 and 1.996 and 2.475
q-PCR of SPI1 (PU.1), log10 (2-ΔΔCt) (ML-2; [9]): 0.4833 and 0.5215 and 0.7318
q-PCR of TAL1 (SCL), log10 (2-ΔΔCt) (ML-2; [9]): 1.453 and 1.626 and 1.68
q-PCR of CEBPA (ML-2; [10]): 1.831 log10 (2-ΔΔCt) and 1.961 log10 (2-ΔΔCt) and 2.004 log10 (2-ΔΔCt)
q-PCR of GATA2 (ML-2; [10]): 1.288 log10 (2-ΔΔCt) and 1.216 log10 (2-ΔΔCt) and 1.319 log10 (2-ΔΔCt)
q-PCR of MYC (ML-2; [10]): -0.6622 log10 (2-ΔΔCt) and -0.5247 log10 (2-ΔΔCt) and -0.8222 log10 (2-ΔΔCt)
q-PCR of SPI1 (ML-2; [10]): 0.8685 log10 (2-ΔΔCt) and 0.5818 log10 (2-ΔΔCt) and 0.6427 log10 (2-ΔΔCt)
q-PCR of TAL1 (ML-2; [10]): 1.398 log10 (2-ΔΔCt) and 0.9599 log10 (2-ΔΔCt) and 0.8228 log10 (2-ΔΔCt)
q-PCR of CEBPA, log10 (2-ΔΔCt) (MV4-11; [11]): 1.278 and 1.212 and 1.279
q-PCR of GATA2, log10 (2-ΔΔCt) (MV4-11; [11]): 2.088 and 2.042 and 2.015
q-PCR of MYC, log10 (2-ΔΔCt) (MV4-11; [11]): -0.6051 and -0.8193 and -0.727
q-PCR of SPI1, log10 (2-ΔΔCt) (MV4-11; [11]): 0.513 and 0.595 and 0.5328
q-PCR of TAL1, log10 (2-ΔΔCt) (MV4-11; [11]): 0.8637 and 0.6983 and 1.049
CDKN1A log10 (2-ΔΔCt) (MV4-11; MV4-11, q-PCR): 0.6259 and 0.6326 and 0.6646
CDKN2A log10 (2-ΔΔCt) (MV4-11; MV4-11, q-PCR): 0.8926 and 0.6026 and 0.7418
CEBPA log10 (2-ΔΔCt) (MV4-11; MV4-11, q-PCR): 1.982 and 1.782 and 1.913
MYC log10 (2-ΔΔCt) (MV4-11; MV4-11, q-PCR): -0.7926 and -0.6522 and -0.726
SPI1 log10 (2-ΔΔCt) (MV4-11; MV4-11, q-PCR): 0.2626 and 0.2252 and 0.159
TAL1 log10 (2-ΔΔCt) (MV4-11; MV4-11, q-PCR): 0.5124 and 0.5 and 0.5901
IC50 (HDAC9): 0.092 µM
inhibition at 10 µM (HDAC9; 10 µM): 97%
LINE-1 methylation (%) CG Position 1 ([1]; ML-2, 48 hours): 70% and 68%
LINE-1 methylation (%) CG Position 2 ([1]; ML-2, 48 hours): 72% and 74%
LINE-1 methylation (%) CG Position 3 ([1]; ML-2, 48 hours): 78% and 80%
LINE-1 methylation (%) CG Position 4 ([1]; ML-2, 48 hours): 85% and 89%
LINE-1 methylation (%) CG Position 5 ([1]; ML-2, 48 hours): 59% and 61%
LINE-1 methylation (%) CG Position 1 ([1]; ML-2, 10 days): 60%
LINE-1 methylation (%) CG Position 2 ([1]; ML-2, 10 days): 54% and 50%
LINE-1 methylation (%) CG Position 3 ([1]; ML-2, 10 days): 61% and 63%
LINE-1 methylation (%) CG Position 4 ([1]; ML-2, 10 days): 73% and 65%
LINE-1 methylation (%) CG Position 5 ([1]; ML-2, 10 days): 43% and 39%
LINE-1 methylation (%) CG Position 1 ([2]; MV4-11, 48 hours): 85%
LINE-1 methylation (%) CG Position 2 ([2]; MV4-11, 48 hours): 80% and 74%
LINE-1 methylation (%) CG Position 3 ([2]; MV4-11, 48 hours): 87%
LINE-1 methylation (%) CG Position 4 ([2]; MV4-11, 48 hours): 95% and 97%
LINE-1 methylation (%) CG Position 5 ([2]; MV4-11, 48 hours): 69% and 65%
LINE-1 methylation (%) CG Position 1 ([2]; MV4-11, 5 days): 79% and 75%
LINE-1 methylation (%) CG Position 2 ([2]; MV4-11, 5 days): 77% and 79%
LINE-1 methylation (%) CG Position 3 ([2]; MV4-11, 5 days): 82% and 84%
LINE-1 methylation (%) CG Position 4 ([2]; MV4-11, 5 days): 92% and 86%
LINE-1 methylation (%) CG Position 5 ([2]; MV4-11, 5 days): 66% and 60%
LINE-1 methylation (%) CG Position 1 Replicate 1 ([3]; HL-60, 48 h): 100%
LINE-1 methylation (%) CG Position 1 Replicate 2 ([3]; HL-60, 48 h): 100%
LINE-1 methylation (%) CG Position 2 Replicate 1 ([3]; HL-60, 48 h): 86%
LINE-1 methylation (%) CG Position 2 Replicate 2 ([3]; HL-60, 48 h): 82%
LINE-1 methylation (%) CG Position 3 Replicate 1 ([3]; HL-60, 48 h): 100%
LINE-1 methylation (%) CG Position 3 Replicate 2 ([3]; HL-60, 48 h): 100%
LINE-1 methylation (%) CG Position 4 Replicate 1 ([3]; HL-60, 48 h): 100%
LINE-1 methylation (%) CG Position 4 Replicate 2 ([3]; HL-60, 48 h): 100%
LINE-1 methylation (%) CG Position 5 Replicate 1 ([3]; HL-60, 48 h): 79%
LINE-1 methylation (%) CG Position 5 Replicate 2 ([3]; HL-60, 48 h): 83%
LINE-1 methylation (%) CG Position 1 ([3]; HL-60, 10 days): 76% and 78%
LINE-1 methylation (%) CG Position 2 ([3]; HL-60, 10 days): 61% and 65%
LINE-1 methylation (%) CG Position 3 ([3]; HL-60, 10 days): 77% and 85%
LINE-1 methylation (%) CG Position 4 ([3]; HL-60, 10 days): 87% and 93%
LINE-1 methylation (%) CG Position 5 ([3]; HL-60, 10 days): 57% and 55%
